Measurements from ChEMBL document CHEMBL1201862, “PubChem BioAssay data set” (2004).
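Dose response: 5 concentrations. Exposure: 48 h. Format: 96-well plates. Endpoint: linear interpolation; highest concentration if not reached. The concentration for 50% growth inhibition is given as GI50.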 Activity calls are given as the source filed them. Cut-off read from the data, not from the text of the source: active = GI50 up to about 1.1 µM and inactive = higher.

Experiments:
Assay in all cases: NCI-60 cell line screen, 48 h
[1] = system: BT-549
[2] = system: HCC 2998
[3] = system: OVCAR-4
[4] = system: HL-60
[5] = system: T47D
[6] = system: EKVX
[7] = system: COLO 205
[8] = system: MDA-MB-435
[9] = system: NCI/ADR-RES
[10] = system: A498
[11] = system: RXF 393
[12] = system: A549
[13] = system: CAKI-1
[14] = system: TK-10
[15] = system: 786-0
[16] = system: U-251
[17] = system: IGROV-1
[18] = system: SK-MEL-2
[19] = system: M14

| Compound | GI50 [1] | GI50 [2] | GI50 [3] | GI50 [4] | GI50 [5] | GI50 [6] | GI50 [7] | GI50 [8] | GI50 [9] | GI50 [10] | GI50 [11] | GI50 [12] | GI50 [13] | GI50 [14] | GI50 [15] | GI50 [16] | GI50 [17] | GI50 [18] | GI50 [19] |
| --- | --- | --- | --- | --- | --- | --- | --- | --- | --- | --- | --- | --- | --- | --- | --- | --- | --- | --- | --- |
| CCCCCCNCCCNc1c2cc(OC)ccc2nc2cccc([N+](=O)[O-])c12 | 0.809 µM (active) | 0.0203 µM (active) | 0.113 µM (active) | 0.214 µM (active) | 0.109 µM (active) | 0.0986 µM (active) | 0.139 µM (active) | 0.143 µM (active) | 0.658 µM (active) | 1.62 µM (inactive) | 0.0245 µM (active) | 0.0578 µM (active) | 0.211 µM (active) | 0.131 µM (active) | 0.0834 µM (active) | 0.131 µM (active) | 0.0119 µM (active) | 0.0764 µM (active) | 0.143 µM (active) |
| N=C1CCCC1C(=S)SCCC(N)=O (stereo not drawn) | > 100 µM (inactive) | > 100 µM (inactive) | > 100 µM (inactive) | > 100 µM (inactive) | > 100 µM (inactive) | > 100 µM (inactive) | > 100 µM (inactive) | > 100 µM (inactive) | > 100 µM (inactive) | > 100 µM (inactive) | > 100 µM (inactive) | > 100 µM (inactive) | > 100 µM (inactive) | > 100 µM (inactive) | > 100 µM (inactive) | > 100 µM (inactive) | > 100 µM (inactive) | > 100 µM (inactive) | > 100 µM (inactive) |
| C/C=C(\C)C(=O)OC1C2C(C)C(=O)OC2C(O)C(C)C2C=CC(=O)C21C (stereo not drawn) | 7.5 µM (inactive) | 13.3 µM (inactive) | 16.9 µM (inactive) | 3.24 µM (inactive) | 16.7 µM (inactive) | 11.7 µM (inactive) | 12.7 µM (inactive) | 12.9 µM (inactive) | 14.6 µM (inactive) | 16.1 µM (inactive) | 8.73 µM (inactive) | 17.8 µM (inactive) | 13 µM (inactive) | 12.5 µM (inactive) | 12.1 µM (inactive) | 11.5 µM (inactive) | 8.69 µM (inactive) | 17.8 µM (inactive) | 14.9 µM (inactive) |
| C=CC(C)(O)/C=C/C=C(\C)C(CC1OC1(C)C)OC(=O)/C(C)=C\C (stereo not drawn) | > 100 µM (inactive) | > 100 µM (inactive) | > 100 µM (inactive) | > 100 µM (inactive) | > 100 µM (inactive) | > 100 µM (inactive) | > 100 µM (inactive) | > 100 µM (inactive) | > 100 µM (inactive) | > 100 µM (inactive) | > 100 µM (inactive) | > 100 µM (inactive) | > 100 µM (inactive) | > 100 µM (inactive) | > 100 µM (inactive) | > 100 µM (inactive) | > 100 µM (inactive) | > 100 µM (inactive) | > 100 µM (inactive) |
| COc1cc(-c2[o+]c3cc(O)cc(O)c3cc2O)cc(O)c1O | > 100 µM (inactive) | 35 µM (inactive) | 60 µM (inactive) | > 100 µM (inactive) | > 100 µM (inactive) | 92.9 µM (inactive) | > 100 µM (inactive) | 19.4 µM (inactive) | > 100 µM (inactive) | > 100 µM (inactive) | > 100 µM (inactive) | > 100 µM (inactive) | > 100 µM (inactive) | > 100 µM (inactive) | > 100 µM (inactive) | > 100 µM (inactive) | > 100 µM (inactive) | > 100 µM (inactive) | > 100 µM (inactive) |
| CCCCC(=O)OC[n+]1ccc(-c2c(COC(=O)NC(C)C)c(COC(=O)NC(C)C)c3n2CCC3)cc1 | > 100 µM (inactive) | > 100 µM (inactive) | > 100 µM (inactive) | 25.5 µM (inactive) | > 100 µM (inactive) | > 100 µM (inactive) | > 80.9 µM (inactive) | > 100 µM (inactive) | > 100 µM (inactive) | 23.9 µM (inactive) | 64 µM (inactive) | > 100 µM (inactive) | 24.9 µM (inactive) | > 100 µM (inactive) | 39.4 µM (inactive) | > 71.3 µM (inactive) | > 100 µM (inactive) | > 100 µM (inactive) | > 77.4 µM (inactive) |
| COc1cc2nc(-c3ccccc3)cc(O)c2cc1OC | > 100 µM (inactive) | 16.5 µM (inactive) | > 73.3 µM (inactive) | 5.78 µM (inactive) | > 100 µM (inactive) | > 100 µM (inactive) | 4.2 µM (inactive) | 2.86 µM (inactive) | 54.8 µM (inactive) | 40.6 µM (inactive) | 21.2 µM (inactive) | 18.5 µM (inactive) | 23.6 µM (inactive) | 55.8 µM (inactive) | 27.8 µM (inactive) | 6.95 µM (inactive) | 28.2 µM (inactive) | 22.4 µM (inactive) | 9.02 µM (inactive) |
| COc1ccc(N2C(=O)c3cccnc3S2(=O)=O)cc1 | > 100 µM (inactive) | > 100 µM (inactive) | > 100 µM (inactive) | > 100 µM (inactive) | > 100 µM (inactive) | > 100 µM (inactive) | > 100 µM (inactive) | > 100 µM (inactive) | > 100 µM (inactive) | > 100 µM (inactive) | > 100 µM (inactive) | > 100 µM (inactive) | > 100 µM (inactive) | – | > 100 µM (inactive) | > 100 µM (inactive) | > 100 µM (inactive) | > 100 µM (inactive) | > 100 µM (inactive) |
| CC(=O)n1c(COS(C)(=O)=O)nc2ccccc21 | > 100 µM (inactive) | > 100 µM (inactive) | > 100 µM (inactive) | – | > 100 µM (inactive) | > 100 µM (inactive) | > 100 µM (inactive) | > 100 µM (inactive) | > 100 µM (inactive) | > 100 µM (inactive) | > 100 µM (inactive) | > 100 µM (inactive) | > 100 µM (inactive) | > 100 µM (inactive) | > 100 µM (inactive) | > 100 µM (inactive) | 66.1 µM (inactive) | > 100 µM (inactive) | > 100 µM (inactive) |
| CC1(C)OC(=O)N(c2ccccc2)C12C=Cc1cc([N+](=O)[O-])ccc1O2 (stereo not drawn) | 51.6 µM (inactive) | 29.2 µM (inactive) | 61.8 µM (inactive) | 20.1 µM (inactive) | 33 µM (inactive) | 23.8 µM (inactive) | 45.3 µM (inactive) | 20 µM (inactive) | 30.2 µM (inactive) | 32.4 µM (inactive) | 60.3 µM (inactive) | 53.2 µM (inactive) | 50.1 µM (inactive) | 39.4 µM (inactive) | 77.3 µM (inactive) | 35.8 µM (inactive) | 32.7 µM (inactive) | 33.4 µM (inactive) | 11 µM (inactive) |
| COc1cc(O)c2c(=O)c3c(C)cccc3n(C)c2c1 | > 10 µM (inactive) | > 10 µM (inactive) | > 10 µM (inactive) | – | > 10 µM (inactive) | 4.17 µM (inactive) | > 10 µM (inactive) | > 10 µM (inactive) | > 10 µM (inactive) | > 10 µM (inactive) | > 10 µM (inactive) | > 10 µM (inactive) | > 10 µM (inactive) | > 10 µM (inactive) | > 10 µM (inactive) | > 10 µM (inactive) | > 10 µM (inactive) | > 10 µM (inactive) | > 10 µM (inactive) |
| O=C1/C(=C\c2cccc(Oc3ccccc3)c2)SC(c2ccccc2)N1c1ccccc1 (stereo not drawn) | > 100 µM (inactive) | > 100 µM (inactive) | 75.2 µM (inactive) | 46.8 µM (inactive) | 52.5 µM (inactive) | 57 µM (inactive) | > 100 µM (inactive) | 33.7 µM (inactive) | 75.3 µM (inactive) | > 100 µM (inactive) | 69.5 µM (inactive) | > 100 µM (inactive) | > 100 µM (inactive) | > 100 µM (inactive) | > 100 µM (inactive) | 25.1 µM (inactive) | – | > 100 µM (inactive) | 71.6 µM (inactive) |
| O=C(O)c1ccc([N+](=O)[O-])c2cc3cnccc3nc12 | 19.1 µM (inactive) | 22.3 µM (inactive) | – | > 100 µM (inactive) | 18.6 µM (inactive) | – | 21.5 µM (inactive) | 26.9 µM (inactive) | 25.9 µM (inactive) | 70 µM (inactive) | 27.1 µM (inactive) | – | > 10 µM (inactive) | – | – | 19.9 µM (inactive) | 34.7 µM (inactive) | 17.9 µM (inactive) | 17.8 µM (inactive) |
| N#Cc1c(-c2ccccc2)c(/N=N/c2ccc(Cl)cc2)c(=O)n2c1[nH]c1ccccc12 | > 100 µM (inactive) | 52.6 µM (inactive) | 15.7 µM (inactive) | – | 97.1 µM (inactive) | 71.4 µM (inactive) | > 100 µM (inactive) | > 100 µM (inactive) | 92.9 µM (inactive) | > 100 µM (inactive) | 42.1 µM (inactive) | > 100 µM (inactive) | 24.3 µM (inactive) | 23.3 µM (inactive) | 23.6 µM (inactive) | 21.2 µM (inactive) | 73.1 µM (inactive) | > 100 µM (inactive) | > 100 µM (inactive) |
| O=c1c2c3c(sc2nc2n1N=C(c1ccc(Cl)cc1)CS2)CCCC3 | > 100 µM (inactive) | > 100 µM (inactive) | > 100 µM (inactive) | > 100 µM (inactive) | > 100 µM (inactive) | > 100 µM (inactive) | > 100 µM (inactive) | > 100 µM (inactive) | > 100 µM (inactive) | > 100 µM (inactive) | > 100 µM (inactive) | > 100 µM (inactive) | > 100 µM (inactive) | > 100 µM (inactive) | > 100 µM (inactive) | > 100 µM (inactive) | > 100 µM (inactive) | – | – |
